Experimental data reported in patent US20130012709A1, “NOVEL INHIBITORS OF STEAROYL-CoA-DESATURASE-1 AND THEIR USES” (CENTRE NATIONAL DE LA RECHERCHE SCIENTIFIQUE, priority 2009, published 2013).
Like-named read-outs stand apart in the source and are kept apart here.

Experiments:
LNCaP cells [1] = experiment: Flow cytometry analysis of cell cycle; type: cell-based, human; conditions: 25 μM, 48 h; untreated cells 20
Description: (§1) Cells were then rinsed in PBS, pelleted at 400 g for 5 min and maintained on ice for 20 min before resuspension in a […] propidium iodide (Sigma) solution. Cells were kept overnight at 4° C. and the percentages of cells in G1, S and G2-M phases of the cell cycle were measured with a Coulter Epics XL™ flow cytometer (Becton Dickinson) using 488-nm laser excitation. For apoptosis experiment, MEFs were treated with the tested compound at 25 μM for 24 h, then rinced in PBS, pelleted at 400 g for 5 min and stained with annexinV-FITC (Roche Diagnostics, Meylan, France) for 15 min at 4° C. The percentage of annexin positive cells was immediately analysed using 488-nm laser excitation.

C4-2 cells [2] = experiment: Flow cytometry analysis of cell cycle; type: cell-based, human; conditions: 25 μM, 48 h; untreated cells 22
Description: as §1

C4-2 cells [3] = experiment: MTT assay (cell viability); conditions: 48 h
Description: (§2) After 48 h, medium was removed and 250 μl of a 5 mg/ml MTT (Sigma, St Louis, Mo., USA) solution in PBS was added to each well. After 4 h incubation at 37° C., the MTT solution was removed, 200 μl of DMSO (Sigma) was added and cells were incubated for 5 min. Two hundred microliters of each samples was distributed in 96-well plates for an optical density reading at 540 nm.

C4-2 cells [4] = experiment: Proliferation by BrDU incorporation
Description: (§3) LNCaP and C4-2 cells grown on coverslips were incubated for 4 hours with BrdU (100 μM final) at 24 hours and 48 hours following SCD-1 knock-down. Cells were then fixed and permeabilized with cold methanol for 10 min at −20° C. After 3 washes with PBS, DNA was denaturated with 4NHCL for 10 min at RT, and cells were incubated with blocking buffer (PBS-1% BSA). BrDU was then detected with anti-BrDU monoclonal antibody 1:50 (Dako, Carpinteria, Calif.) for 1 hour at 37° C. After 3 washes with PBS, cells were incubated with an FITC-conjugated anti-mouse secondary antibody 1:150 (Jackson Immunoresearch) for 30 min at 37° C., and slides were mounted in mowiol.

LNCaP cells [5] = experiment: Proliferation by BrDU incorporation; type: cell-based, human
Description: as §3

SCD1 mRNA and protein = experiment: SCD-1 knock-down by siRNA, mRNA and protein expression; type: cell-based, human
Description: For small interfering (si) RNA experiments, transfection of LNCaP or C4-2 cells was carried out with pre-designed ON-TARGET plus siRNA oligonucleotides control or targeting the human SCD-1 sequence GCACAUCAACUUCACCACA (Dharmacon, Lafayette, Co, USA).
Nucleofaction of cells with 2.5 μg siRNA were performed on 2×10^6 cells using Amaxa nucleofactor R kit (Lonza, Cologne, Germany). Twenty-four hours and 48 hours after transfection, cells were processed for cell proliferation by BrdU staining and harvested for RNA and protein analysis.
RNA was extracted with the use of TRI-Reagent (Euromedex, Mundolsheim, France) according to the manufacturers' recommendations. Reverse transcription of total RNA was performed at 37° C. using the M-MLV reverse transcriptase (Invitrogen) and random hexanucleotide primers (Promega, Madison, Wis.), followed by a 15 min inactivation at 70° C. Quantitative PCR was conducted using the primers specific for human SCD1 and SYBR Green Light Cycler Master Mix (Eurofins MWG Operon, Roissy CDG). […] Values are expressed as the relative mRNA level of specific gene expression as obtained using the formula 2^−(ΔCt).

C4-2 cells [6] = system: C4-2 cells
Description: as §2

COc1ccc(Br)c(C(=O)N2CCN(S(=O)(=O)c3ccc(F)cc3)CC2)c1 [Example 2, 1-[(2-bromo-5-methoxybenzoyl)]-4-[(4-fluorophenyl)sulfonyl]piperazine]
% LNCaP cells in phase S at 25 μM (LNCaP cells [1]): 5%
% C4-2 cells in phase S at 25 μM (C4-2 cells [2]): 11.8%
Viable C4-2 cells at 25 μM (% of control) (C4-2 cells [3]): 49 % of control
inhibition at 25 µM (C4-2 cells [4]; Homo sapiens, C4-2, 48 h, read-out: % Inhibition of proliferation at 25 μM (BrDU) on C4-2): 37.2 ± 8.8%
melting point: 202 °C

siRNA: pre-designed ON-TARGET plus siRNA oligonucleotides targeting the human SCD-1 sequence GCACAUCAACUUCACCACA (Dharmacon) (chemistry not given here) [reference compound]
proliferation after SCD-1 knock-down (LNCaP cells [5]; LNCaP, siRNA): marked decrease
proliferation after SCD-1 knock-down (C4-2 cells [4]; C4-2, siRNA): marked decrease
SCD1 mRNA and protein expressions (SCD1 mRNA and protein): blocked

COc1ccc(Br)c(C(=O)N2CCN(S(=O)(=O)c3ccc(OC(F)(F)F)cc3)CC2)c1 [Example 11]
% Inhibition of proliferation at 25 μM (BrDU) on LNCaP (LNCaP cells [5]; 25 μM, 48 h of treatment): 45.5%
Viable C4-2 cells at 25 μM (% of control) (C4-2 cells [6]): 74 % of control
% Inhibition of proliferation at 25 μM (BrDU) on C4-2 (C4-2 cells [4]; 25 μM, 48 h of treatment): 63 ± 4.1%
